# Measurements: US12660819B2, “Herbicidal derivatives” (SYNGENTA CROP PROTECTION AG, priority 2020, dated 2026)
# Tests used:
# Format in all cases: in vivo
# Setaria faberi (SETFA) [1] = assay: Pre-emergence Test (glasshouse, percentage damage to the plant); settings: 1000 g/ha unless otherwise stated, Setaria faberi
# [2] = tested on: Echinochloa crus-galli (ECHCG); assay: as above; settings: 1000 g/ha unless otherwise stated, Echinochloa crus-galli
# [3] = tested on: Abutilon theophrasti (ABUTH); assay: as above; settings: 1000 g/ha unless otherwise stated, Abutilon theophrasti
# [4] = tested on: Amaranthus retoflexus (AMARE); assay: as above; settings: 1000 g/ha unless otherwise stated, Amaranthus retoflexus
# [5] = tested on: Amaranthus retoflexus (AMARE); assay: Post-emergence Test (glasshouse, percentage damage to the plant); settings: post-emergence; 1000 g/ha unless otherwise stated; evaluated after 13 days
# Outline: (§1)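 After sowing in standard soil, pots were kept at 24/16 °C (day/night), 14 h light and 65% humidity. They were sprayed at 1000 g/ha unless otherwise stated, watered twice daily, and assessed for percentage damage at 13 days on a 1–5 scale.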
# [6] = tested on: Ipomoea hederacea (IPOHE); assay: as above; settings: post-emergence; 1000 g/ha unless otherwise stated; evaluated after 13 days
# Outline: (§2)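 Seeds are sown in standard soil under controlled glasshouse conditions. The pots are then sprayed at 1000 g/ha, unless otherwise stated, with compound in acetone/water (50:50) containing 0.5% Tween 20. After 13 days further growth, percentage plant damage is scored from 1 (0-20%) to 5 (81-100%).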
# Setaria faberi (SETFA) [7] = assay: as above; settings: post-emergence; 1000 g/ha unless otherwise stated; evaluated after 13 days
# Outline: as §2
# Zea mays (ZEAMX) [8] = assay: as above; settings: post-emergence; 1000 g/ha unless otherwise stated; evaluated after 13 days
# Outline: as §2
# [9] = tested on: Abutilon theophrasti (ABUTH); assay: as above; settings: post-emergence; 1000 g/ha unless otherwise stated; evaluated after 13 days
# Outline: as §1
# Zea mays (ZEAMX) [10] = assay: Pre-emergence Test (glasshouse, percentage damage to the plant); settings: 1000 g/ha unless otherwise stated, Zea mays
# [11] = tested on: Ipomoea hederacea (IPOHE); assay: as above; settings: 1000 g/ha unless otherwise stated, Ipomoea hederacea
SMILES,"percentage damage to the plant, SETFA (five-point scale) (Setaria faberi (SETFA) [1])","percentage damage to the plant, ECHCG (five-point scale) [2]","percentage damage to the plant, ABUTH (five-point scale) [3]","percentage damage to the plant, AMARE (five-point scale) [4]","AMARE, percentage damage caused to the plant (five-point scale) [5]","IPOHE, percentage damage caused to the plant (five-point scale) [6]","SETFA, percentage damage caused to the plant (five-point scale) (Setaria faberi (SETFA) [7])","ZEAMX, percentage damage caused to the plant (five-point scale) (Zea mays (ZEAMX) [8])","ABUTH, percentage damage caused to the plant (five-point scale) [9]","percentage damage to the plant, ZEAMX (five-point scale) (Zea mays (ZEAMX) [10])","percentage damage to the plant, IPOHE (five-point scale) [11]"
"CCn1c(C)c(-c2ccc(Cl)c(F)c2)c(=O)c(C(=O)O)c1-c1ccc(Cl)cc1 [Compound 201, 5-(4-chloro-3-fluoro-phenyl)-2-(4-chlorophenyl)-1-ethyl-6-methyl-4-oxo-pyridine-3-carboxylic acid]",3 (3=41-60%),3 (3=41-60%),2 (2=21-40%),1 (1=0-20%),2 (2=21-40%),1 (1=0-20%),3 (3=41-60%),2 (2=21-40%),4 (4=61-80%),0,0
"CCn1c(CCOC)c(-c2ccc(Cl)cc2)c(=O)c(C(=O)OC)c1-c1ccc(Cl)c(Cl)c1 [Compound 202, methyl 5-(4-chlorophenyl)-2-(3,4-dichlorophenyl)-1-ethyl-6-(2-methoxyethyl)-4-oxo-pyridine-3-carboxylate]",0,0,0,0,0,1 (1=0-20%),0,1 (1=0-20%),0,0,0
"CCn1c(CCOC)c(-c2ccc(Cl)cc2)c(=O)c(C(=O)O)c1-c1ccc(Cl)c(Cl)c1 [Compound 203, 5-(4-chlorophenyl)-2-(3,4-dichlorophenyl)-1-ethyl-6-(2-methoxyethyl)-4-oxo-pyridine-3-carboxylic acid]",0,1 (1=0-20%),,0,0,0,0,1 (1=0-20%),0,0,0
"CCn1c(-c2ccc(Cl)c(Cl)c2)c(C(=O)O)c(=O)c(-c2ccc(Cl)cc2)c1C(F)F [Compound 204, 5-(4-chlorophenyl)-2-(3,4-dichlorophenyl)-6-(difluoromethyl)-1-ethyl-4-oxo-pyridine-3-carboxylic acid]",0,0,2 (2=21-40%),5 (5=81-100%),5 (5=81-100%),2 (2=21-40%),3 (3=41-60%),1 (1=0-20%),5 (5=81-100%),0,0
"CCn1c(-c2ccc(Cl)c(Cl)c2)c(C(=O)OC)c(=O)c(-c2ccc(Cl)cc2)c1C(F)F [Compound 205, methyl 5-(4-chlorophenyl)-2-(3,4-dichlorophenyl)-6-(difluoromethyl)-1-ethyl-4-oxo-pyridine-3-carboxylate]",0,0,0,0,1 (1=0-20%),1 (1=0-20%),0,0,0,0,0
